Laboratory results as given in publication PMC5856393, “Synthetic pathways and processes for effective production of 5-hydroxytryptophan and serotonin from glucose in Escherichia coli” (Journal of Biological Engineering, 2018).

What was measured:
[1] = target: T1, CtAAAH-F (aromatic amino acid hydroxylase W192F) (Cupriavidus taiwanensis, UniProt B3R7Q6, W192F); experiment: tryptophan hydroxylation assay, Lineweaver-Burk plot; format: biochemical; details: parent CtAAAH-F (W192F); assay conditions only by citation
T1 construct: gene phhA; engineered W192F parent, expressed in E. coli from pACYCDuet-1 derivatives; tag and purification not described here
T1 sequence (B3R7Q6 entry or part of it W192F): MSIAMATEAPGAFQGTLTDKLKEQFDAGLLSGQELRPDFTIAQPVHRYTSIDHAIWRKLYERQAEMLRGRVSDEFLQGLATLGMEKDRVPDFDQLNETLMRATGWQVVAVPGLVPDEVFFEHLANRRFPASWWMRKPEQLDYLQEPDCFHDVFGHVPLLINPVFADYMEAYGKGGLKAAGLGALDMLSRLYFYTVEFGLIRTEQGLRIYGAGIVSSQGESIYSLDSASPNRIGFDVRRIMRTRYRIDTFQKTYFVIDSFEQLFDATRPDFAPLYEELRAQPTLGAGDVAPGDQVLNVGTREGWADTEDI
Text: (§1) tryptophan hydroxylation assay, Lineweaver-Burk plot on CtAAAH-F (aromatic amino acid hydroxylase W192F)

[2] = target: T2, CtAAAH-F (aromatic amino acid hydroxylase W192F) (Cupriavidus taiwanensis, UniProt B3R7Q6, W192F/E219C); experiment: as above; format: biochemical; details: made in the CtAAAH-F (W192F) background; assay conditions only by citation
T2 construct: gene phhA; engineered W192F parent, expressed in E. coli from pACYCDuet-1 derivatives; tag and purification not described here
T2 sequence (B3R7Q6 entry or part of it W192F/E219C): as the sequence (B3R7Q6 entry or part of it W192F) above, with E219C counted along it
Text: as §1

[3] = target: T3, CtAAAH-F (aromatic amino acid hydroxylase W192F) (Cupriavidus taiwanensis, UniProt B3R7Q6, W192F/F197I); experiment: as above; format: biochemical; details: made in the CtAAAH-F (W192F) background; assay conditions only by citation
T3 construct: gene phhA; engineered W192F parent, expressed in E. coli from pACYCDuet-1 derivatives; tag and purification not described here
T3 sequence (B3R7Q6 entry or part of it W192F/F197I): as the sequence (B3R7Q6 entry or part of it W192F) above, with F197I counted along it
Text: as §1

[4] = target: T4, CtAAAH-F (aromatic amino acid hydroxylase W192F) (Cupriavidus taiwanensis, UniProt B3R7Q6, W192F/F197L); experiment: as above; format: biochemical; details: made in the CtAAAH-F (W192F) background; assay conditions only by citation
T4 construct: gene phhA; engineered W192F parent, expressed in E. coli from pACYCDuet-1 derivatives; tag and purification not described here
T4 sequence (B3R7Q6 entry or part of it W192F/F197L): as the sequence (B3R7Q6 entry or part of it W192F) above, with F197L counted along it
Text: as §1

[5] = target: T5, CtAAAH-F (aromatic amino acid hydroxylase W192F) (Cupriavidus taiwanensis, UniProt B3R7Q6, W192F/F197L/E219C); experiment: as above; format: biochemical; details: made in the CtAAAH-F (W192F) background; assay conditions only by citation
T5 construct: gene phhA; engineered W192F parent, expressed in E. coli from pACYCDuet-1 derivatives; tag and purification not described here
T5 sequence (B3R7Q6 entry or part of it W192F/F197L/E219C): as the sequence (B3R7Q6 entry or part of it W192F) above, with F197L, E219C counted along it
Text: as §1

[6] = target: T6, TDC (tryptophan decarboxylase) (Catharanthus roseus, UniProt P17770); experiment: whole-cell bioconversion, HPLC of serotonin; format: cell-based; details: E. coli BL21(DE3) delta-tnaA expressing TDC; pH 6.7, 30 °C
T6 construct: expressed in E. coli BL21(DE3) delta-tnaA from pCOLAJ23-TDC; gene from pCOLADuet-GSTdelta37T5H + TDC
T6 sequence (P17770 whole entry): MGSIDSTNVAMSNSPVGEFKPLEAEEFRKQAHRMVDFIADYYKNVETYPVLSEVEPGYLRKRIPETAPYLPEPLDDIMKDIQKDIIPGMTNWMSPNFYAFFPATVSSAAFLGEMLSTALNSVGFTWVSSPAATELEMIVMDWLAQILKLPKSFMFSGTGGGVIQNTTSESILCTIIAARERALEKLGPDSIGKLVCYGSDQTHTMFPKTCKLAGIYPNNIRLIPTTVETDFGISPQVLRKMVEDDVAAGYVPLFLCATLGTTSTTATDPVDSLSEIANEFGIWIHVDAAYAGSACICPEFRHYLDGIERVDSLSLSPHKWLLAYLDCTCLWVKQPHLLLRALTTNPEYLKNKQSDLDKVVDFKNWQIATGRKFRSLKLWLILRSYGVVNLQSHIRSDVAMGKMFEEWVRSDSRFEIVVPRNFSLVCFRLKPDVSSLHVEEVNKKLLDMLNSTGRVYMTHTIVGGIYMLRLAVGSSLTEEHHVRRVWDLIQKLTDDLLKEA

Row | Km [1] | Km [2] | Km [3] | Km [4] | Km [5] | SMILES | whole-cell bioconversion, HPLC of serotonin [6]
1 | 3000 µM | 1800 µM | 2100 µM | 1600 µM | 950 µM | N[C@@H](Cc1c[nH]c2ccccc12)C(=O)O [tryptophan] | –
2 | – | – | – | – | – | N[C@@H](Cc1c[nH]c2ccc(O)cc12)C(=O)O [5HTP] | The consumption of 5HTP and serotonin production had a strong correlation
